Data published in patent US8071600B2, “Derivatives of 4-piperazin-1-yl-4-benzo[B]thiophene suitable for the treatment of CNS disorders” (Otsuka Pharmaceutical Co., Ltd., priority 2005, dated 2011).
Counter-ions that a name gives are not always drawn.

Key:
[1] = target: T1, Serotonin 5-HT2A receptor (Rattus norvegicus, UniProt P14842); experiment: Serotonin 5-HT2A receptor binding assay ([3H]-Ketanserin); conditions: Serotonin 5-HT2A receptor binding test, rat frontal cortex membrane, Ki calculated from IC50 by Cheng-Prussoff formula
T1 construct: from tissue; host or cells: Wistar rat brain, frontal cortex membranes
T1 sequence (P14842 whole entry): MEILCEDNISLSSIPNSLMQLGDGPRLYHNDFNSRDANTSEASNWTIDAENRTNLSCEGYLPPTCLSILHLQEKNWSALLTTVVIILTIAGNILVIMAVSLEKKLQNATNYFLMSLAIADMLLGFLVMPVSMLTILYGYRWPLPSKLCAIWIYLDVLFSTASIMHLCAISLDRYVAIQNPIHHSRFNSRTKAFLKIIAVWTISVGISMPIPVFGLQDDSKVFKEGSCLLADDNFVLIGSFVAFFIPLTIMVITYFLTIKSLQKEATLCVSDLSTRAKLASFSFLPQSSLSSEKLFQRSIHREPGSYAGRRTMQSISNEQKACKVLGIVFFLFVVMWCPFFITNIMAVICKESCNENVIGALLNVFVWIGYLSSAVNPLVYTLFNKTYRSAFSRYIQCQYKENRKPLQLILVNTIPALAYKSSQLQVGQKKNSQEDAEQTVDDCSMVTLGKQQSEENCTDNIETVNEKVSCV
Protocol: 2) Serotonin 5-HT2A Receptor Binding Assay
The assay was performed according to the method by Leysen J E et al. (Leysen J E, Niemegeers C J E, Van Nueten J M and Laduron P M. [3H] Ketanserin (R 41 468), a selective 3H-ligand for serotonin 2 receptor binding sites. Mol. Pharmacol., 1982, 21: 301-314).
Wistar male rats were decapitated, the brain was retrieved immediately and frontal cortex was taken out. It was homogenized in 0.25 M sucrose of a volume 10 times of the weight of the tissue using a Teflon glass homogenizer, and centrifuged at 4° C., 1,000×g for 10 minutes. The obtained supernatant was transferred to another centrifuge tube and suspended in 0.25 M sucrose of a volume 5 times of the weight of the tissue and the precipitate was centrifuged in the above-described condition. The obtained supernatant was combined with the supernatant obtained above and adjusted to a volume 40 times of the weight of the tissue with 50 mM Tris-hydrochloric acid buffer (pH 7.4), and centrifuged at 4° C., 35,000×g for 10 minutes. The obtained precipitate was suspended again in the above-described buffer of a volume 40 times of the weight of the tissue and centrifuged in the above-described condition. The obtained precipitate was suspended in the above-described buffer of a volume 20 times of the weight of the tissue and preserved by freezing at −85° C. till it was used for binding assay as a membrane specimen.
The binding assay was performed using 40 μl of the membrane specimen, 20 μl of [^3H]-Ketanserin (final concentration 1 to 3 nM), 20 μl of a test drug and 50 mM Tris-hydrochloric acid buffer (pH 7.4) so that the total amount was 200 μl (final dimethylsulfoxide concentration 1%). The reaction was performed at 37° C. for 20 minutes and terminated by conducting suction filtration with a cell harvester on a glass fiber filter plate.
The filter plate made of glass fiber was washed with 50 mM Tris-hydrochloric acid buffer (pH 7.4), and after dried, a microplate liquid scintillation cocktail was added and the radioactivity was measured with a microplate scintillation counter. Radioactivity in the presence of 10 μM spiperone was assumed as nonspecific binding.
(§1) IC50 value was calculated from concentration-dependent reaction using a non-linear analysis program. Ki value was calculated from IC50 value using Cheng-Prussoff formula.

Dopamine D2 receptor = target: T2, Dopamine D2 receptor (Rattus norvegicus, UniProt P61169); experiment: Dopamine D2 receptor binding assay ([3H]-raclopride); conditions: Dopamine D2 receptor binding test, rat corpus striatum membrane, Ki calculated from IC50 by Cheng-Prussoff formula
T2 construct: from tissue; host or cells: Wistar rat brain, corpus striatum membranes
T2 sequence (P61169 whole entry): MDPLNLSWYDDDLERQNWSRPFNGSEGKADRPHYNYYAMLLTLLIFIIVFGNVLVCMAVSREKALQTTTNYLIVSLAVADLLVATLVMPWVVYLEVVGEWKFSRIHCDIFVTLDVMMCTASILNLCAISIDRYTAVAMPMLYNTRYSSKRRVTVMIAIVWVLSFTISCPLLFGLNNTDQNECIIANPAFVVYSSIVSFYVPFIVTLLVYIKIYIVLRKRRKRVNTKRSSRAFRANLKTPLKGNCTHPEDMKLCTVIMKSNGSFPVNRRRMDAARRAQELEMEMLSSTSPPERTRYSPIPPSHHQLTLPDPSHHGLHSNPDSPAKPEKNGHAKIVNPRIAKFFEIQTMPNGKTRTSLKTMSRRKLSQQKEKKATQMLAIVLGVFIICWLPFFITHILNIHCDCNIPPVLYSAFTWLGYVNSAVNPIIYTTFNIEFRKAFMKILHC
Protocol: 1) Dopamine D2 Receptor Binding Assay
The assay was performed according to the method by Kohler et al. (Kohler C, Hall H, Ogren S O and Gawell L, Specific in vitro and in vivo binding of 3H-raclopride. A potent substituted benzamide drug with high affinity for dopamine D-2 receptors in the rat brain. Biochem. Pharmacol., 1985; 34: 2251-2259).
Wistar male rats were decapitated, the brain was retrieved immediately and corpus striatum was taken out. It was homogenized in 50 mM tris(hydroxymethyl)aminomethane (Tris)-hydrochloric acid buffer (pH 7.4) of a volume 50 times of the weight of the tissue using a homogenizer with a high-speed rotating blade, and centrifuged at 4° C., 48,000×g for 10 minutes. The obtained precipitate was suspended again in the above-described buffer of a volume 50 times of the weight of the tissue and after incubated at 37° C. for 10 minutes, centrifuged in the above-described condition. The obtained precipitate was suspended in 50 mM (Tris)-hydrochloric acid buffer (containing 120 mM NaCl, 5 mM KCl, 2 mM CaCl2, 1 mM MgCl2, pH 7.4) of a volume 25 times of the weight of the tissue and preserved by freezing at −85° C. till it was used for binding assay as a membrane specimen.
The binding assay was performed using 40 μl of the membrane specimen, 20 μl of [^3H]-raclopride (final concentration 1 to 2 nM), 20 μl of a test drug and 50 mM Tris-hydrochloric acid buffer (containing 120 mM NaCl, 5 mM KCl, 2 mM CaCl2, 1 mM MgCl2, pH 7.4) so that the total amount was 200 μl (final dimethylsulfoxide concentration 1%). The reaction was performed at room temperature for 1 hour and terminated by conducting suction filtration with a cell harvester on a glass fiber filter plate. The filter plate made of glass fiber was washed with 50 mM Tris-hydrochloric acid buffer (pH 7.4), and after dried, a microplate liquid scintillation cocktail was added and the radioactivity was measured with a microplate scintillation counter. Radioactivity in the presence of 10 μM (+)-butaclamol hydrochloride was assumed as nonspecific binding.
as §1

Row | Ki [1] [nM] | Ki (Dopamine D2 receptor) [nM] | SMILES
1 | 0.6 | 0.2 | COc1cc(NC=O)cc(C)c1OCCCN1CCN(c2cccc3sccc23)CC1 [Example 354]
2 | 2.9 | 0.8 | NC(=O)c1csc(OCCCN2CCN(c3cccc4sccc34)CC2)n1 [Example 7, 2-[3-(4-benzo[b]thiophen-4-yl-piperazin-1-yl)propoxy]thiazole-4-carboxamide]
3 | 4.2 | 3.3 | CC1(C)C(=O)Nc2ccc(OCCCN3CCN(c4cccc5sccc45)CC3)cc21 [Example 1014]
4 | 2.4 | 0.4 | O=C1Cc2ccc(OCCCCN3CCN(c4cccc5sccc45)CC3)cc2N1 [Example 127]
5 | 0.6 | 1.2 | O=C(NCCCn1ccnc1)c1ccc(OCCCN2CCN(c3cccc4sccc34)CC2)cc1 [Example 650]
6 | 1.1 | 0.2 | COc1cc(N2CCOC2=O)cc(C)c1OCCCN1CCN(c2cccc3sccc23)CC1 [Example 358]
7 | 0.7 | 1 | O=c1[nH]c2ccc(OCCCN3CCN(c4cccc5sccc45)CC3)cc2[nH]1 [Example 112]
8 | 0.9 | 1 | O=C(c1ccc(OCCCN2CCN(c3cccc4sccc34)CC2)cc1)N1CCN(c2ccncc2)CC1 [Example 706]
9 | 1.4 | 0.4 | CC1Oc2ccc(OCCCCN3CCN(c4cccc5sccc45)CC3)cc2NC1=O (stereo not shown) [Example 144]
10 | 2 | 1.9 | O=C1CCOc2cc(OCCCN3CCN(c4cccc5sccc45)CC3)ccc2N1 [Example 1027]
11 | 1.1 | 2 | COC(=O)Nc1ccc(OCCCN2CCN(c3cccc4sccc34)CC2)c(F)c1 [Example 363]
12 | 2.4 | 0.1 | O=C1NCc2ccc(OCCCCN3CCN(c4cccc5sccc45)CC3)cc2N1 [Example 146]

The remaining lines, values behind:

Row | SMILES | Ki [1] [nM] | Ki (Dopamine D2 receptor) [nM]
13 | COC(=O)N(C)c1cc(C)c(OCCCN2CCN(c3cccc4sccc34)CC2)c(OC)c1 [Example 17, methyl N-methyl-{4-[3-(4-benzo[b]thiophen-4-yl-piperazin-1-yl)propoxy]-3-methoxy-5-methylphenyl}carbamate hydrochloride] | 3.4 | 0.6
14 | Cc1ccc(OCCCN2CCN(c3cccc4sccc34)CC2)cn1 [Example 40] | 0.6 | 3.1
15 | Cn1nc(C(N)=O)cc1OCCCN1CCN(c2cccc3sccc23)CC1 [Example 4, 5-[3-(4-benzo[b]thiophen-4-yl-piperazin-1-yl)propoxy]-1-methyl-1H-pyrazole-3-carboxamide] | 7.7 | 1.9
16 | CCN(CC)CCNC(=O)c1ccc(OCCCN2CCN(c3cccc4sccc34)CC2)cc1 [Example 160] | 0.6 | 0.4
17 | Cc1cc(=O)oc2cc(OCCCN3CCN(c4cccc5sccc45)CC3)ccc12 [Example 115] | 3.7 | 1.6
18 | COc1cc(N2CCCC2=O)cc(CO)c1OCCCN1CCN(c2cccc3sccc23)CC1 [Example 359] | 1.1 | 0.2
19 | Cn1cnc2ccc(OCCCN3CCN(c4cccc5sccc45)CC3)cc2c1=O [Example 95] | 2.3 | 1.9
20 | CC(C)N(CCNC(=O)c1ccc(OCCCN2CCN(c3cccc4sccc34)CC2)cc1)C(C)C [Example 546] | 0.7 | 0.6
21 | CN1CCN(Cc2ccc(OCCCN3CCN(c4cccc5sccc45)CC3)cc2)CC1 [Example 314] | 0.8 | 0.8
22 | CCN(C)Cc1ccc(OCCCN2CCN(c3cccc4sccc34)CC2)c(C)c1 [Example 307] | 0.7 | 0.3
23 | CC(=O)Nc1ccc(OCCCN2CCN(c3cccc4sccc34)CC2)cc1 [Example 343] | 0.5 | 0.9
24 | CCNCc1ccc(OCCCN2CCN(c3cccc4sccc34)CC2)cc1 [Example 286] | 0.8 | 0.2
25 | O=C1CCc2ccc(OCCCN3CCN(c4cccc5sccc45)CC3)cc21 [Example 125] | 3.9 | 2
26 | CCNC(=O)c1cc(OCCCN2CCN(c3cccc4sccc34)CC2)n(C)n1 [Example 62] | 4.7 | 1.6
